Measurements from US12678445B2, “Methods for treating glioblastoma” (BOARD OF REGENTS, THE UNIVERSITY OF TEXAS SYSTEM, priority 2020, dated 2026).

Legend:
[1] = tested on: murine GBM cell lines (GL261); experiment: GBM (GL261) tumor bearing mice: tumor growth and survival; assay type: in vivo; details: FIG. 4
From the text: (§1) To test this hypothesis, the inventors crossed LysM^cre (Jackson Laboratory. 004781) and KDm6B^fl/fl (Jackson Laboratory, 029615) mice to generate LysM^creKDm6B^fl/fl mice. The inventors inoculated murine GBM cell lines (GL261) into the LysM^creKDm6B^fl/fl mice (FIG. 5). […] The pre-clinical data provide a strong rationale of testing KDM6B inhibitor in clinic in combination with immune checkpoint therapy.

myeloid cells = experiment: Macrophage / myeloid cell phenotype in GBM tumor bearing mice; assay type: in vivo; details: compared with myeloid specific depletion of KDM6B (increasing type I and type II IFN responses and antigen presenting pathways)
From the text: as §1

CCOC(=O)CCNc1cc(N2CCc3ccccc3CC2)nc(-c2ccccn2)n1 [GSK-J4]
survival [1]: improved survival
tumor growth [1]: attenuated tumor growth
changes of macrophage phenotype (myeloid cells): could recapitulate the changes of macrophage phenotype
